From patent publication US20120202794A1 (priority 2011, published 2012)

How the values were obtained:
HCV Replicon 1b = assay: HCV inhibition assay, HCV replicon 1b (Clone A or ET-lunet cells; RT-PCR or luciferase reporter); type: cell-based; settings: Hepatitis C virus, 96 h, HCV replicon 1b; 4 days incubation; read-out: Replicon 1b potency EC90
How it was run: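 Clone A (1500/well) or ET-lunet (3000/well) replicon cells treated with serially diluted compounds (0.5% DMSO, no G418) for 4 days at 37 °C. HCV RNA measured by one-step RT-PCR normalized to rRNA (ΔΔCt) or by luciferase luminescence versus DMSO controls; EC50/EC90 by curve fitting.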

[1] = Cell cytotoxicity assay (MTS), CC90 as reported in Table 1, cell line not stated; type: cell-based; settings: human, cell line not given
How it was run: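 Compounds, serially diluted from 100 μM, were incubated 8 days at 37° C with Huh7, HepG2 or BxPC3 (2×10^3 cells/well) or CEM (5×10^3 cells/well). Viability was read by MTS, 2 h, absorbance 490 nm. CC90 (90% inhibition) was taken against untreated cells.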

Structure (SMILES)	EC90 (HCV Replicon 1b) [µM]	CC90 at 8 days [1] [µM]	CC90 at 8 days ([1]; MTS assay, 8 days incubation) [µM]
CC(C)C[C@H]1C(=O)N[C@@H](C2CCCCC2)CN1C(=O)[C@@H]1C[C@H]1c1ccc(F)c(F)c1 [Compound 258, (3S,6S)-6-Cyclohexyl-4-[(1R,2R)-2-(3,4-difluoro-phenyl)-cyclopropanecarbonyl]-3-isobutyl-piperazin-2-one]	0.56	> 10	
CC(C)C[C@H]1C(=O)N[C@@H](C2CCCC2)CN1C(=O)[C@@H]1C[C@H]1c1ccc(F)c(F)c1 [Compound 259, (3S,6S)-6-Cyclopentyl-4-[(1R,2R)-2-(3,4-difluoro-phenyl)-cyclopropanecarbonyl]-3-isobutyl-piperazin-2-one]	0.59	> 10	
CC(C)C[C@H]1C(=O)N[C@@H](c2ccccc2)CN1C(=O)[C@@H]1C[C@H]1c1ccc(F)c(F)c1 [Compound 260, (3S,6S)-4-[(1R,2R)-2-(3,4-Difluoro-phenyl)-cyclopropanecarbonyl]-3-isobutyl-6-phenyl-piperazin-2-one]	0.23	> 10	
CC(C)C[C@H]1CN(C(=O)/C=C/c2ccc(N(C)C)cc2)[C@@H](CC(C)C)C(=O)N1 [Compound 261, (3S,6S)-4-((E)-3-(4-(dimethylamino)phenyl)acryloyl)-3,6-diisobutylpiperazin-2-one]	> 10		> 10
CC(C)C[C@H]1CN(C(=O)C#Cc2cccnc2)[C@@H](CC(C)C)C(=O)N1 [Compound 262, (3S,6S)-3,6-diisobutyl-4-(3-(pyridin-3-yl)propioloyl)piperazin-2-one]	> 10		> 10
COc1ccc(/C=C/C(=O)N2C[C@H](CC(C)C)NC(=O)[C@@H]2CC(C)C)cc1 [Compound 263, (3S,6S)-3,6-diisobutyl-4-((E)-3-(4-methoxyphenyl)acryloyl)piperazin-2-one]	8.7		> 10
CC(C)C[C@H]1CN(C(=O)/C=C/c2cccc(Cl)c2)[C@@H](CC(C)C)C(=O)N1 [Compound 264, (3S,6S)-4-[3-(3-chlorophenyl)-acryloyl]-3,6-diisobutyl-piperazin-2-one]	8.1		> 10
CC(C)C[C@H]1CN(C(=O)/C=C/c2ccccc2Cl)[C@@H](CC(C)C)C(=O)N1 [Compound 265, (3S,6S)-4-[3-(2-chlorophenyl)-acryloyl]-3,6-diisobutyl-piperazin-2-one]	9.75		> 10
CC(C)C[C@H]1CN(C(=O)/C=C/c2ccccc2F)[C@@H](CC(C)C)C(=O)N1 [Compound 266]	7.93		> 10
CC(C)C[C@H]1CN(C(=O)/C=C/c2ccc(Cl)cc2Cl)[C@@H](CC(C)C)C(=O)N1 [Compound 267, (3S,6S)-4-[3-(2,4-dichloro-phenyl)-acryloyl]-3,6-diisobutyl-piperazin-2-one]	6.89		> 10
CSc1ccc(/C=C/C(=O)N2C[C@H](CC(C)C)NC(=O)[C@@H]2CC(C)C)cc1 [Compound 268, (3S,6S)-3,6-diisobutyl-4-((E)-3-(4-methylsulfanyl-phenyl)acryloyl)piperazin-2-one]	9.8		> 10
CC(C)C[C@H]1CN(C(=O)/C=C/c2ccc(C(C)(C)C)cc2)[C@@H](CC(C)C)C(=O)N1 [Compound 269, (3S,6S)-3,6-diisobutyl-4-((E)-3-(4-tert-butyl-phenyl)acryloyl)piperazin-2-one]	8.9		> 10
COC(=O)c1ccc(/C=C/C(=O)N2C[C@H](CC(C)C)NC(=O)[C@@H]2CC(C)C)cc1 [Compound 270, Methyl 4-((E)-3-((2S,5S)-2,5-diisobutyl-3-oxopiperazin-1-yl)-3-oxoprop-1-en-1-yl)-benzoate]	> 10		> 10
CC(C)C[C@H]1CN(C(=O)/C=C/c2c(F)cccc2F)[C@@H](CC(C)C)C(=O)N1 [Compound 271, (3S,6S)-4-[3-(2,6-Difluoro-phenyl)-acryloyl]-3,6-diisobutyl-piperazin-2-one]	> 10		> 10
CC(C)C[C@H]1CN(C(=O)c2cc(-c3ccc(Cl)cc3)cs2)[C@@H](CC(C)C)C(=O)N1 [Compound 272, (3S,6S)-4-(4-(4-chlorophenyl)thiophene-2-carbonyl)-3,6-diisobutylpiperazin-2-one]	3.56		> 10
CC(C)C[C@H]1CN(C(=O)c2cc(-c3ccccc3Cl)on2)[C@@H](CC(C)C)C(=O)N1 [Compound 274, (3S,6S)-4-(5-(2-chlorophenyl)isoxazole-3-carbonyl)-3,6-diisobutylpiperazin-2-one]	5.95		> 10
CC(C)C[C@H]1CN(C(=O)c2cc(-c3ccc(Cl)cc3Cl)on2)[C@@H](CC(C)C)C(=O)N1 [Compound 275, (3S,6S)-4-(5-(2,4-dichlorophenyl)isoxazole-3-carbonyl)-3,6-diisobutylpiperazin-2-one]	6.31		> 10
CC(C)C[C@H]1CN(C(=O)c2cc(-c3ccc(Cl)c(Cl)c3)on2)[C@@H](CC(C)C)C(=O)N1 [Compound 276, (3S,6S)-4-(5-(3,4-Dichlorophenyl)isoxazole-3-carbonyl)-3,6-diisobutylpiperazin-2-one]	2.98		> 10
CSc1ccc(-c2cc(C(=O)N3C[C@H](CC(C)C)NC(=O)[C@@H]3CC(C)C)no2)cc1 [Compound 277, (3S,6S)-3,6-diisobutyl-4-(5-(4-(methylthio)phenyl)isoxazole-3-carbonyl)piperazin-2-one]	5.84		> 10
CC(C)C[C@H]1CN(C(=O)Cc2cc(-c3ccc(F)cc3)on2)[C@@H](CC(C)C)C(=O)N1 [Compound 278, (3S,6S)-4-(2-(5-(4-fluorophenyl)isoxazol-3-yl)acetyl)-3,6-diisobutylpiperazin-2-one]	7.89		> 10
CC(C)C[C@H]1C(=O)N[C@@H](CC(C)(C)C)CN1C(=O)[C@@H]1C[C@H]1c1ccccc1 [Compound 280, (3S,6S)-3-isobutyl-6-neopentyl-4-((1R,2R)-2phenylcyclopropanecarbonyl)piperazin-2-one]	8.65		> 10
CC(C)(C)C[C@H]1CN(C(=O)[C@@H]2C[C@H]2c2ccccc2)[C@@H](CC(C)(C)C)C(=O)N1 [Compound 281, (3S,6S)-3,6-dineopentyl-4-((1R,2R)-2-phenylcyclopropanecarbonyl)-piperazin-2-one]	> 10		> 10
CCc1ccc(-c2cc(C(=O)N3C[C@H](CC(C)C)NC(=O)[C@@H]3CC(C)C)no2)cc1 [Compound 283, (3S,6S)-4-(5-(4-ethylphenyl)isoxazole-3-carbonyl)-3,6-diisobutylpiperazin-2-one]	8.75		> 10
CC(C)C[C@H]1CN(C(=O)c2cc(-c3ccc(C4CC4)cc3)on2)[C@@H](CC(C)C)C(=O)N1 [Compound 284, (3S,6S)-4-(5-(4-cyclopropylphenyl)isoxazole-3-carbonyl)-3,6-diisobutylpiperazin-2-one]	> 10		> 10
COc1ccc2c(c1)CCc1cc(C(=O)N3C[C@H](CC(C)C)NC(=O)[C@@H]3CC(C)C)sc1-2 [Compound 286, (3S,6S)-3,6-diisobutyl-4-(7-methoxy-4,5-dihydronaphtho[1,2-b]thiophene-2-carbonyl)piperazin-2-one]	3.91		> 10
